Measured values: patent publication US20260015341A1, “PI3K INHIBITOR, PREPARATION METHOD THEREFOR, AND USE THEREOF” (HINOVA PHARMACEUTICALS INC., priority 2022, published 2026)

How the values were obtained:
[1] = target: PI3Kα[WT]/[E542K]/[E545K]/[H1047R]/PI3Kβ/γ/δ; assay: PI3K enzyme activity assay (ADP-Glo); assay type: biochemical; details: PI3K kinase reaction, isoform not given
Description: Experimental Example 1: PI3Kα[WT]/[E542K]/[E545K]/[H1047R]/PI3Kβ/γ/δ Enzyme Activity Assay
PI3Kα[WT], PI3Kα[E542K], PI3Kα[E545K], PI3Kα[H1047R], PI3Kβ, PI3Kγ and PI3Kδ kinase reaction was performed in 384-well plate (PerkinElmer, #6008280), with a reaction system of 4 μL. PI3Kα[WT] enzyme solution (Promega, #V1721) or PI3Kα[E542K] enzyme solution (CarnaBio, #11-413-20N) or PI3Kα[E545K] enzyme solution (CarnaBio, #11-414-20N) or PI3Kα[H1047R] enzyme solution (Promega, #V1741) or PI3Kβ enzyme solution (Promega, #V1751) or PI3Kγ enzyme solution (ThermoFisher, #PV4786) or PI3Kδ enzyme solution (ThermoFisher, #PV6451) were added to 384-well plate, and then gradiently diluted compounds were added (starting at a final concentration of 10 μM, 3-fold dilution, 10 doses), followed by adding PIP2: 3PS (Promega, #V1701) and ATP solution (Promega, #V915B) to the plate. After incubation at 25° C. for 1 h, ADP-Glo reagent buffer (Promega, #V9102) was added to each well. The plate was sealed and incubated at 25° C. for 40 min, and then 10 μL of ADP-Glo detection buffer (Promega, #V9102) was added to each well. After incubating at 25° C. for 40 min, the chemiluminescence value was read using an instrument.
The experimental results are shown in the ADP Glo IC50 column in Table 2.

[2] = Pharmacokinetics in beagle dogs; assay type: in vivo; details: beagle dog; for AUC / half-life / clearance / Vd: male, plasma; for Vd: read-out: VSS
Description: Experimental Example 5: The Pharmacokinetics of the Compound According to the Present Invention in Beagle Dogs
(§1) 9 healthy adult male beagle dogs (three for each administration route of each compound) were fasted overnight (>12 h) before gavage, with free access to water; 4 hours after administration, rats could take food, and were administered via tail vein injection and gastric lavage, respectively. At different time points, forelimb venous blood sample was collected and anti-coagulated, wherein the anticoagulant was EDTA-K2 (the sample was placed in an ice bath after blood collection). The plasma was separated by centrifugation at 3200 g for 10 min, and stored at −70° C. for testing. The plasma concentration of compounds was determined by LC-MS/MS method.
(§2) The plasma concentration of compound at all time points was used to calculate the main pharmacokinetic parameters with Winnolin 8.3 non-compartmental model.
(§3) The area under the concentration-time curve AUCall value: calculated using the trapezoidal method; AUCinf=AUCall+Ct/ke, Ct is the plasma concentration at the last measurable time point, and ke is the elimination rate constant;
(§4) The clearance rate CL=D/AUCinf (D is the administration dosage);
The volume of distribution at steady state Vss=CL×MRT. The mean retention time MRT=AUMC/AUC;

Pharmacokinetics in rats = assay type: in vivo, SD rats; details: rat; for AUC / half-life / clearance / Vd: male, SD, plasma; for Vd: read-out: VSS
Description: Experimental Example 4: The Pharmacokinetics of the Compound According to the Present Invention in Rats
as §1, with “SD rats” for “beagle dogs”, “intravenous” for “forelimb venous”, “4° C. and 6000” for “3200”, “5” for “10”
as §2, §3
The elimination half life t1/2=0.693/ke;
as §4
The volume of distribution at steady state Vss=CL×MRT, The mean retention time MRT=AUMC/AUC;

[3] = po, ig (intragastric), 10 mg/kg
[4] = iv (tail vein injection), 1 mg/kg

Row | IC50 [1] [nM] | F ([2]; ig (intragastric), 3 mg/kg) [%] | F ([2]; ig (intragastric), 10 mg/kg) [%] | AUC ([2]; po, ig (intragastric), 3 mg/kg) [ng·h/mL] | half-life ([2]; po, ig (intragastric), 3 mg/kg) [h] | AUC [2, 3] [ng·h/mL] | half-life [2, 3] [h] | AUC ([2]; iv, 1 mg/kg) [ng·h/mL] | clearance ([2]; iv, 1 mg/kg) [mL/min/kg] | half-life ([2]; iv, 1 mg/kg) [h] | Vd ([2]; iv, 1 mg/kg) [L/kg] | AUC (Pharmacokinetics in rats; po, ig (intragastric), 3 mg/kg) [ng·h/mL] | half-life (Pharmacokinetics in rats; po, ig (intragastric), 3 mg/kg) [h] | AUC (Pharmacokinetics in rats; [4]) [ng·h/mL] | clearance (Pharmacokinetics in rats; [4]) [mL/min/kg] | half-life (Pharmacokinetics in rats; [4]) [h] | Vd (Pharmacokinetics in rats; [4]) [L/kg] | F (Pharmacokinetics in rats; ig (intragastric), 3 mg/kg) [%] | SMILES
1 | < 1000 | 74.5 | 49.1 | 4910 | 3.81 | 11000 | 7.7 | 2210 | 7.77 | 3.34 | 0.879 | 4040 | 18 | 1390 | 10.9 | 3.44 | 2.2 | 89.0 | Cc1cc([C@@H](C)Nc2ccc(Cl)nc2C(=O)O)c2nc(-c3ccc(F)cn3)n(C)c(=O)c2c1 [Compound 66, (R)-6-chloro-3-((1-(2-(5-fluoropyridin-2-yl)-3,6-dimethyl-4-oxo-3,4-dihydroquinazolin-8-yl)ethyl)amino)pyridinecarboxylic Acid]
2 | < 1000 | 52.4 | 62.8 | 3710 | 4.11 | 13700 | 12.7 | 2390 | 6.9 | 5.56 | 0.663 | 1330 | 2.4 | 1010 | 16.6 | 2.73 | 1.33 | 44.8 | C[C@@H](Nc1ccc(Cl)nc1C(=O)O)c1cc(F)cc2c(=O)n(C)c(-c3ccc(F)cn3)nc12 [Compound 74]
